“And” between values parts separate entries of the source, which are not always exact repeats. Equal entries are not always repeated.

The target of the first data set is T1, human NTCP (Homo sapiens, UniProt Q14973).
T1 construct: HEK293 cell lines stably transfected with the full open reading frames of human NTCP; expressed in transfected cells
T1 sequence (Q14973 1-349): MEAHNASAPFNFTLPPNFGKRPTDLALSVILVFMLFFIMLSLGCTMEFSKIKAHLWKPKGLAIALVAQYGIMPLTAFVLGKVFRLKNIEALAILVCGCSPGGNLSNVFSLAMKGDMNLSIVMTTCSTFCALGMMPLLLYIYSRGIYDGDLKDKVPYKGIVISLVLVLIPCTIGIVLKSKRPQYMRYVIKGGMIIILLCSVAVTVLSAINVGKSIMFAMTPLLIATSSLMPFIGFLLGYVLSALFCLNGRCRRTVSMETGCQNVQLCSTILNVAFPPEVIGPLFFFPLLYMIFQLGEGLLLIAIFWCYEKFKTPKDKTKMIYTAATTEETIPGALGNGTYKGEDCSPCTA
Description: Transport kinetics of conjugated 3-NBD-BA (concentration-dependent uptake). To be noted: NTCP-HEK293, 10 min uptake, 37 °C, specific (Na+-dependent) uptake. The class given is cell-based. Here is the method:
(§1) In a first step, the time-dependent transport of all conjugated NBD-BA was analyzed. […] Based on these findings, an uptake phase of 10 min was selected as the most practical for subsequent kinetic transport measurements. […] In contrast, for ASBT, reliable carrier-specific concentration-dependent transport rates and K m values could only be determined for 3α-NBD-GCA (16d). The transport rates for 3β-NBD-TCA (14a), 3β-NBD-TCDCA (14b), 3β-NBD-GCA (16a), and 3α-NBD-TCA (14d) were at ≤ 2 across the entire concentration range and were therefore not considered biologically meaningful.
(§2) 6 NTCP and mNtcp transport kinetics for conjugated 3-NBD-BA. Concentration-dependent uptake of the indicated NBD-coupled BA was analyzed in HEK293 cells stably expressing human NTCP or mouse mNtcp at increasing substrate concentrations. Control experiments were performed in the absence of sodium (-Na^+). Uptake was analyzed for 10 min at 37 °C with transport buffer containing the indicated 3-NBD-BA. Afterward, the transport medium was removed, and each cell monolayer was washed and processed for fluorescence detection. Specific uptake was calculated by subtracting the nonspecific uptake in the absence of sodium (-Na^+, open symbols) from the uptake in the presence of sodium (+Na^+, closed symbols) and is shown by dotted lines. Values represent means ± SD of quadruplicate determinations. Michaelis Menten K m values were calculated by nonlinear regression analysis based on the specific uptake data.
For `C[C@H](CCC(=O)NCCS(=O)(=O)[O-])[C@H]1CC[C@H]2[C@@H]3[C@H](O)C[C@@H]4C[C@@H](Nc5ccc([N+](=O)[O-])c6nonc56)CC[C@]4(C)[C@H]3C[C@H](O)[C@]12C.[Na+]` [14a], the “K m NTCP” value is 29.5 µM.

As to `C[C@H](CCC(=O)NCC(=O)O)[C@H]1CC[C@H]2[C@@H]3[C@H](O)C[C@@H]4C[C@@H](Nc5ccc([N+](=O)[O-])c6nonc56)CC[C@]4(C)[C@H]3C[C@H](O)[C@]12C` [16a], the “K m NTCP” value turned out to be 43.1 µM.

Consider `C[C@H](CCC(=O)NCCS(=O)(=O)[O-])[C@H]1CC[C@H]2[C@@H]3[C@H](O)C[C@@H]4C[C@H](Nc5ccc([N+](=O)[O-])c6nonc56)CC[C@]4(C)[C@H]3C[C@H](O)[C@]12C.[Na+]` [14d], for which the “K m NTCP” value was 20.0 µM and 20 µM.

As to `C[C@H](CCC(=O)NCC(=O)O)[C@H]1CC[C@H]2[C@@H]3[C@H](O)C[C@@H]4C[C@H](Nc5ccc([N+](=O)[O-])c6nonc56)CC[C@]4(C)[C@H]3C[C@H](O)[C@]12C` [16d], the “K m NTCP” value turned out to be 36.8 µM.

The next data set deals with T2, mouse mNtcp (Mus musculus, UniProt O08705).
T2 construct: stably transfected with the full open reading frames of human NTCP, ASBT, SOAT, OATP1B1, and OATP1B3 as well as mouse mNtcp and mAsbt; expressed in transfected cells
T2 sequence (O08705 1-362): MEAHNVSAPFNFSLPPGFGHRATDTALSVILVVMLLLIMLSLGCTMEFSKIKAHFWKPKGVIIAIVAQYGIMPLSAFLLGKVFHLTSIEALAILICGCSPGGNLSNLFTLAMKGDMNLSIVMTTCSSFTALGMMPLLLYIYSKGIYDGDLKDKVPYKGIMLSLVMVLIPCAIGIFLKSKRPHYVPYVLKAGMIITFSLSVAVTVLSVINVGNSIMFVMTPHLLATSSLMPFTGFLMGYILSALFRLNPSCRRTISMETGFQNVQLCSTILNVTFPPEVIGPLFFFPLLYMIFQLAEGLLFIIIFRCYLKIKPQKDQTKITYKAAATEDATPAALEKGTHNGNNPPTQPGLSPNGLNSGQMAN
The description is as above. The settings on record: mNtcp-HEK293, 10 min uptake, 37 °C, specific (Na+-dependent) uptake. Type of data set: cell-based. Here is the method:
as §1, §2
Take `C[C@H](CCC(=O)NCCS(=O)(=O)[O-])[C@H]1CC[C@H]2[C@@H]3[C@H](O)C[C@@H]4C[C@@H](Nc5ccc([N+](=O)[O-])c6nonc56)CC[C@]4(C)[C@H]3C[C@H](O)[C@]12C.[Na+]` [14a]: the “K m mNtcp” value was determined as 20.6 µM.

For the compound `C[C@H](CCC(=O)NCC(=O)O)[C@H]1CC[C@H]2[C@@H]3[C@H](O)C[C@@H]4C[C@@H](Nc5ccc([N+](=O)[O-])c6nonc56)CC[C@]4(C)[C@H]3C[C@H](O)[C@]12C` [16a], the “K m mNtcp” value was 17.2 µM.

Take `C[C@H](CCC(=O)NCCS(=O)(=O)[O-])[C@H]1CC[C@H]2[C@@H]3[C@H](O)C[C@@H]4C[C@H](Nc5ccc([N+](=O)[O-])c6nonc56)CC[C@]4(C)[C@H]3C[C@H](O)[C@]12C.[Na+]` [14d]: the “K m mNtcp” value was 9.5 µM.

On to `C[C@H](CCC(=O)NCC(=O)O)[C@H]1CC[C@H]2[C@@H]3[C@H](O)C[C@@H]4C[C@H](Nc5ccc([N+](=O)[O-])c6nonc56)CC[C@]4(C)[C@H]3C[C@H](O)[C@]12C` [16d], for which the “K m mNtcp” value stood at 5.2 µM.

A further data set concerns the target T1, human NTCP. Description: Fluorescence microscopy screening of cellular uptake of 3-NBD-BA. The class given is cell-based. To be noted: 50 μM, 10 min, +Na+ vs -Na+. Here is the method: (§3) Then, all cell lines were cultivated in chamber slides and were grown to confluence to screen for carrier-mediated cellular accumulation of the synthesized NBD-BA. Incubation with the NBD-BA was done in the presence of sodium (+Na^+) as well as in the absence of sodium (-Na^+, negative control) for all SLC10 carriers, namely NTCP, ASBT, mNtcp, mAsbt, and SOAT. For OATP1B1 and OATP1B3, nontransfected HEK293 cells were used as negative control.
(§4) 4 Screening of the cellular uptake of 3-NBD-BA in HEK293 (HEK) cells stably expressing the human carriers NTCP, ASBT, SOAT, OATP1B1, and OATP1B3, or the mouse carriers mNtcp and mAsbt. For the SLC10 carriers, sodium-free conditions (-Na^+) were used as control. For the OATPs, experiments in non-carrier-expressing HEK293 cells (HEK) served as control. All cell lines were incubated for 10 min with the indicated 3-NBD-BA at 50 μM concentration. Then, cells were washed with PBS and subjected to fluorescence microscopy. Identical microscope settings were used for all images. Scale bar: 75 μm.
With `C[C@H](CCC(=O)NCCS(=O)(=O)[O-])[C@H]1CC[C@H]2[C@@H]3[C@H](O)C[C@@H]4C[C@@H](Nc5ccc([N+](=O)[O-])c6nonc56)CC[C@]4(C)[C@H]3C[C@H](O)[C@]12C.[Na+]` [14a], the “Cellular NBD-fluorescence, NTCP-HEK293 (microscopy)” value is listed as “significant increase in cellular NBD-fluorescence compared to the negative control”.

Consider `C[C@H](CCC(=O)NCC(=O)O)[C@H]1CC[C@H]2[C@@H]3[C@H](O)C[C@@H]4C[C@@H](Nc5ccc([N+](=O)[O-])c6nonc56)CC[C@]4(C)[C@H]3C[C@H](O)[C@]12C` [16a], for which the “Cellular NBD-fluorescence, NTCP-HEK293 (microscopy)” value is recorded as “significant increase in cellular NBD-fluorescence compared to the negative control”.

As to `C[C@H](CCC(=O)NCCS(=O)(=O)[O-])[C@H]1CC[C@H]2[C@@H]3[C@H](O)C[C@@H]4C[C@H](Nc5ccc([N+](=O)[O-])c6nonc56)CC[C@]4(C)[C@H]3C[C@H](O)[C@]12C.[Na+]` [14d], the “Cellular NBD-fluorescence, NTCP-HEK293 (microscopy)” value is “significant increase in cellular NBD-fluorescence compared to the negative control”.

Regarding `C[C@H](CCC(=O)NCC(=O)O)[C@H]1CC[C@H]2[C@@H]3[C@H](O)C[C@@H]4C[C@H](Nc5ccc([N+](=O)[O-])c6nonc56)CC[C@]4(C)[C@H]3C[C@H](O)[C@]12C` [16d], the “Cellular NBD-fluorescence, NTCP-HEK293 (microscopy)” value is “significant increase in cellular NBD-fluorescence compared to the negative control”.

In the next data set the target is T2, mouse mNtcp. The description is as above. Type of data set: cell-based. To be noted: 50 μM, 10 min, +Na+ vs -Na+. As for the experimental part:
as §3, §4
On to `C[C@H](CCC(=O)NCCS(=O)(=O)[O-])[C@H]1CC[C@H]2[C@@H]3[C@H](O)C[C@@H]4C[C@@H](Nc5ccc([N+](=O)[O-])c6nonc56)CC[C@]4(C)[C@H]3C[C@H](O)[C@]12C.[Na+]` [14a], for which the “Cellular NBD-fluorescence, mNtcp-HEK293 (microscopy)” value is on record as “significant increase in cellular NBD-fluorescence compared to the negative control”.

Consider `C[C@H](CCC(=O)NCC(=O)O)[C@H]1CC[C@H]2[C@@H]3[C@H](O)C[C@@H]4C[C@@H](Nc5ccc([N+](=O)[O-])c6nonc56)CC[C@]4(C)[C@H]3C[C@H](O)[C@]12C` [16a], for which the “Cellular NBD-fluorescence, mNtcp-HEK293 (microscopy)” value was “significant increase in cellular NBD-fluorescence compared to the negative control”.

For the compound `C[C@H](CCC(=O)NCCS(=O)(=O)[O-])[C@H]1CC[C@H]2[C@@H]3[C@H](O)C[C@@H]4C[C@H](Nc5ccc([N+](=O)[O-])c6nonc56)CC[C@]4(C)[C@H]3C[C@H](O)[C@]12C.[Na+]` [14d], the “Cellular NBD-fluorescence, mNtcp-HEK293 (microscopy)” value is recorded as “significant increase in cellular NBD-fluorescence compared to the negative control”.

Turning to `C[C@H](CCC(=O)NCC(=O)O)[C@H]1CC[C@H]2[C@@H]3[C@H](O)C[C@@H]4C[C@H](Nc5ccc([N+](=O)[O-])c6nonc56)CC[C@]4(C)[C@H]3C[C@H](O)[C@]12C` [16d], the “Cellular NBD-fluorescence, mNtcp-HEK293 (microscopy)” value is given as “significant increase in cellular NBD-fluorescence compared to the negative control”.

System in the next data set: not given
Assay: not given
To be noted: in situ liver perfusion with bile duct cannulation; ref not given; cited from earlier work. Also noted: method as in not given.
For `C[C@H](CCC(=O)NCCS(=O)(=O)[O-])[C@H]1CC[C@H]2[C@@H]3[C@H](O)C[C@@H]4C[C@H](Nc5ccc([N+](=O)[O-])c6nonc56)CC[C@]4(C)[C@H]3C[C@H](O)[C@]12C.[Na+]` [14d], the “Fate in the liver (metabolism, secretion into bile)” value is given as “completely transformed within the liver cells to a polar fluorescent metabolite that showed sparse secretion into bile”.

Still in this data set, the particulars now being: in situ liver perfusion, injected into the mesenterial vein, within 30 min; ref not given; cited from earlier work.
Take `C[C@H](CCC(=O)NCCS(=O)(=O)[O-])[C@H]1CC[C@H]2[C@@H]3[C@H](O)C[C@@H]4C[C@@H](Nc5ccc([N+](=O)[O-])c6nonc56)CC[C@]4(C)[C@H]3C[C@H](O)[C@]12C.[Na+]` [14a]: the “Amount injected recovered in the bile” value is 95%.

The values above are taken from article PMC12169615, “Fluorescent 4‑Nitrobenzo-2-oxa-1,3-diazole-Coupled Bile Acids as Probe Substrates of Hepatic and Intestinal Bile Acid Transporters of the Solute Carrier Families SLC10 and SLCO” (Journal of Medicinal Chemistry, 2025).
